Tests used:
human fetal kidney cells [1] = assay: Flow cytometry of renal progenitor surface markers after VPA; assay type: cell-based; settings: 24 h 4 mM VPA, FACS
Method: Cell Treatment: Cells were treated for 24 hours with growth medium supplemented with 1, 2, or 4 mM VPA (Sigma) or with H2O for control sample. Otherwise, cells were treated for 24 hours with growth medium supplemented with the combination of 75 μM TSA (Sigma) and 250 μM 5-AZA (Sigma) or with 100% Ethanol and Acetic Acid (Acetic Acid: H2O 1:1) for control sample. […] 24 hours prior to harvesting VPA at a concentration of 4 mM was added to the cell culture.
Flow Cytometry: Cells were detached from culture plated with non-enzymatic cell dissociation solution (Sigma-Aldrich). Cells (1×10^5 in each reaction) were suspended in 50 μl of FACS buffer [0.5% BSA and 0.02% sodium azid in PBS (Sigma-Aldrich and Invitrogen, respectively)] and blocked with FcR Blocking Reagent (MiltenyiBiotec) and human serum (1:1) for 15 minutes. Cells were then incubated for 45 minutes with the following primary antibodies: CD24-PE, NCAM1-PE, (both from eBioscience), CD133-APC, PSA-NCAM (both from MiltenyiBiotec), FZD7-biotin, NTRK2 (both from R&D Systems) or a matching isotype control. Cells were washed with FACS buffer, and incubated for 30 minutes with a secondary antibody if needed: goat anti mouse Streptavidin-APC (BD) or goat anti mouse Alexa Fluor 647 (Invitrogen). Cell's labeling was detected using FACSCalibur (BD). Flow cytometry results were analyzed using FlowJo analysis software. Viable cells were gated by both their FSC/SSC profile and 7AAD (eBioscience) exclusion.

human adult kidney cells [2] = assay: qRT-PCR gene expression after TSA/AzaC or VPA treatment; assay type: cell-based
Excerpt: (§1) Tissue Samples: human tissues samples were collected according to the Helsinki requirements. Human fetal kidney cells (HFK) were collected from elective abortions at fetal gestational age ranged from 15 to 19 weeks. Normal human adult kidney cell (HAK) samples were retrieved from borders of RCC tumors from partial nephrectomy patients. Establishment of Primary Cultures from Human Kidney Tissues: Collected tissues were minced in HBSS, soaked in IMDM Medium (Invitrogen) supplemented with 0.1% collagenase II (Invitrogen). The digested tissue was then gradually forced through a 100 μm, 70 μm and 50 μm cell strainer to achieve a single cell suspension, and cultured in growth medium supplemented with FBS 10%, L-Glutamin 1%, Pen-Strep 1% and growth factors: 50 ng/ml of bFGF, 50 ng/ml of EGF and 5 ng/ml of SCF (R&D systems). Cell Treatment: […] Otherwise, cells were treated for 24 hours with growth medium supplemented with the combination of 75 μM TSA (Sigma) and 250 μM 5-AZA (Sigma) or with 100% Ethanol and Acetic Acid (Acetic Acid: H2O 1:1) for control sample. […] 24 hours prior to harvesting VPA at a concentration of 4 mM was added to the cell culture. Quantitative Reverse Transcription-PCR: Total RNA from kidney tissue cultured cells was isolated using the TRIZOL reagent (Invitrogen) according to the manufacturer's protocols. cDNA synthesis was carried out using Verso kit (Thermo scientific) with Random primers. Quantitative RT PCR was performed using an ABI7900HT sequence detection system (Perkin-Elmer/Applied Biosystems) in the presence of SYBR green (SYBR green PCR kit; Qiagen). Each analysis reaction was performed in duplicates or triplicates. GapDH was used as an endogenous control throughout all experimental analyses. Analysis was performed using the −ΔΔCt method, which determines fold changes in gene expression relative to a comparator sample.

human fetal kidney cells [3] = assay: as above; assay type: cell-based
Excerpt: as §1

Oct4 OE HAK cells = assay: qRT-PCR of Oct4 over-expressing HAK cells with or without VPA; assay type: cell-based, human
HAK cells = assay: Culture passage with transient or constant VPA (qRT-PCR, morphology); assay type: cell-based, human; settings: for cell morphology: culture passage
Method: Quantitative Reverse Transcription-PCR: Total RNA from kidney tissue cultured cells was isolated using the TRIZOL reagent (Invitrogen) according to the manufacturer's protocols. cDNA synthesis was carried out using Verso kit (Thermo scientific) with Random primers. Quantitative RT PCR was performed using an ABI7900HT sequence detection system (Perkin-Elmer/Applied Biosystems) in the presence of SYBR green (SYBR green PCR kit; Qiagen). Each analysis reaction was performed in duplicates or triplicates. GapDH was used as an endogenous control throughout all experimental analyses. Analysis was performed using the −ΔΔCt method, which determines fold changes in gene expression relative to a comparator sample. Maintaining re-induction of Six2/Osr1 in cultured human kidney cells is potentially important if such cells were to be propagated in vitro for the purpose of cell therapy. The present inventors therefore determined whether Six2 and Osr1 are maintained upon tissue culture passage of adult cells. Two treatment protocols were employed; the first, 24-hour exposure to 4 mM VPA and the second constant exposure to VPA.

human adult kidney cells [4] = assay: β-catenin immunofluorescence after VPA; assay type: cell-based; settings: valproic acid 24 hours, vs non-treated cells
Method: (§2) Immunofluorescence Staining: AK, FK (treated and untreated) human epithelial cell line and fibroblast cell line were fixed with acetone at −20° C. for seven minutes and washed with PBS. Cells were blocked with 7% human serum in PBS for 15 minutes followed by incubation with β-catenin antibody (1:150) (Chemicon international) for 60 minutes. Cells were washed and then incubated with secondary antibody with Cy-3 conjugated anti-mouse IgG (1:200) (Jackson) for 30 minutes. For nuclear staining, cells were washed with PBS containing Hochest (Dako). The presence of β-catenin was examined under a Zeiss confocal fluorescence microscope.

human fetal kidney cells [5] = assay: β-catenin immunofluorescence after VPA; assay type: cell-based; settings: valproic acid 24 hours, vs non-treated cells
Method: as §2

human adult kidney cells [6] = assay: qRT-PCR gene expression after TSA/AzaC or VPA treatment; assay type: cell-based; settings: HAK cells, 24 h VPA, particularly in VPA-2 mM
[7] = HAK cells, 24 h, TSA/AzaC or VPA 1-4 mM, vs untreated control
[8] = HAK cells, 24 h, TSA/AzaC or all VPA concentrations (1, 2, 4 mM)
[9] = HFK cells, 24 h, TSA/AzaC or VPA
[10] = HFK cells, 24 h, TSA/AzaC or VPA (lesser extent than Six2)
[11] = P0 cells, transient 24-hour exposure to 4 mM VPA
[12] = later passages, transient 24-hour exposure to 4 mM VPA

## CCCC(CCC)C(=O)O [VPA, valproic acid]
Human fetal kidney cells [1]
  CD133 surface expression: milder changes
  NCAM surface expression levels: significant upregulation
  PSA-NCAM surface expression levels: significant upregulation
Human adult kidney cells [2]; HAK cells, 24 h, TSA 75 μM + 5-AZA 250 μM, or VPA 1, 2, 4 mM (dose-dependent), vs untreated control
  Six2 mRNA reinduction: five-fold
Human adult kidney cells [2]; HAK cells, 24 h, TSA/AzaC or VPA
  Vimentin mRNA expression change: mostly unchanged
Human adult kidney cells [2]; [7]
  Osr1 mRNA expression change (re-activation): upregulated in a dose-dependent manner
  Pax2 mRNA expression change (re-activation): mildly elevated
  Sall1 mRNA expression change (re-activation): upregulated in a dose-dependent manner
  Wt1 mRNA expression change (re-activation): reduced
Human adult kidney cells [2]; [8]
  Klf4 mRNA expression change: significantly up-regulated
  Nanog mRNA expression change: significantly up-regulated
Human adult kidney cells [2]; HAK cells, 24 h, TSA/AzaC, or VPA (effect at 2 mM, 4 mM)
  E-cadherin mRNA expression change: mildly elevated
Human adult kidney cells [2]; HAK cells, 24 h treatment
  Oct4 mRNA expression change: remained unchanged
Human adult kidney cells [2]; VPA-treated adult kidney cells
  Wnt4 mRNA levels: strong up-regulation
  β-catenin mRNA levels: elevation
Human fetal kidney cells [3]; HFK cells, 24 h, 4 mM VPA
  Klf4 mRNA increase: two-five
  Nanog mRNA increase: two-five
  Oct4 mRNA increase: two-five
Human fetal kidney cells [3]; [9]
  E-cadherin mRNA expression change: significantly elevated
  Pax2 mRNA expression change: mild elevation
  Wt1 mRNA expression change: reduction
Human fetal kidney cells [3]; [10]
  Osr1 mRNA expression change: dose-dependent activation
  Sall1 mRNA expression change: dose-dependent activation
Human fetal kidney cells [3]; HFK cells, 24 h VPA, dose-dependent
  Six2 mRNA induction: four-fold
Human fetal kidney cells [3]; VPA-treated fetal kidney cells
  Wnt4 mRNA levels: strong up-regulation
  β-catenin mRNA levels: elevation
Oct4 OE HAK cells
  Six2 expression, VPA exposure combined with Oct4 OE: higher Six2 expression pattern compared to each of the single manipulations
HAK cells; [11]
  Osr1 gene levels: re-induced
  Six2 gene levels: re-induced
HAK cells; constant VPA exposure, P1-P3
  Osr1 gene levels upon culture passage: significant Six2 and Osr1 re-induction
  Six2 gene levels upon culture passage: significant Six2 and Osr1 re-induction
HAK cells; constant VPA exposure, P3 cells
  Six2 gene levels: even further up-regulated
HAK cells; constant VPA exposure
  cell morphology: epithelial-like cell morphology
HAK cells; [12]
  Osr1 gene levels: remained similar to controls
  Six2 gene levels: remained similar to controls
HAK cells; transient 24-hour VPA exposure
  cell morphology: fibroblastic morphology
Human adult kidney cells [4]
  β-catenin immunofluorescence localisation: cyoplasmic and nuclear accumulation
Human fetal kidney cells [5]
  β-catenin immunofluorescence localisation: cyoplasmic and nuclear accumulation
Human adult kidney cells [6]
  Oct4 mRNA expression change: significantly up-regulated
